From US11046640B2, “Water-soluble L-DOPA esters” (BERLIREM GMBH, priority 2015, dated 2021)
Values after ≈ are worked out from the molar mass of the structure shown. Values belong to the compound of their own block, whether it stands above or below them.

What was measured:
Solubility in water = assay type: physicochemical; conditions: for solubility in water: hydrochloride salt; for Aqueous solubility: water
Description: 40 mg of lyophilized L-DOPA glycerol ester hydrochloride was dissolved in 20 μl of water resulting in a viscous liquid. The aqueous solubility of L-DOPA glycerol ester hydrochloride is ≥2 g/ml.

[1] = biological target: T1, carboxylesterase 1 (isoform c, human, recombinant) (Homo sapiens, UniProt P23141); assay: Enzymatic ester cleavage using isolated carboxylesterase; assay type: in vitro ADME
T1 construct: purchased Sigma-Aldrich, Munich, Germany
T1 sequence (P23141 18-566 isoform P23141-3 limits assumed): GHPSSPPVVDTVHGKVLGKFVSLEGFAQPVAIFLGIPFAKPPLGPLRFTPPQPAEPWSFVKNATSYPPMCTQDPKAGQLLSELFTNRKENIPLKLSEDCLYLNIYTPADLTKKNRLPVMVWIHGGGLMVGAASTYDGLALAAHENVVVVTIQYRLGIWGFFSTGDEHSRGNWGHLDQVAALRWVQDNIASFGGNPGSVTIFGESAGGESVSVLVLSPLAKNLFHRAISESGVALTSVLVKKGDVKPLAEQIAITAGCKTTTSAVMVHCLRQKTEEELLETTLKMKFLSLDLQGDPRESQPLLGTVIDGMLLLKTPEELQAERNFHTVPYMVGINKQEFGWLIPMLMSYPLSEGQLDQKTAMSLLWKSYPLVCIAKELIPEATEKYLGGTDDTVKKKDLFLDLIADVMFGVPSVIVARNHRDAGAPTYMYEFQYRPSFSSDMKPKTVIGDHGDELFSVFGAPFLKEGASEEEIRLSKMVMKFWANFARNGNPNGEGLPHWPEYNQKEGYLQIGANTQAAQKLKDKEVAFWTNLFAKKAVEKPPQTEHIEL
Description: Enzymatic Ester Cleavage Using Isolated Carboxylesterase
Afterwards 5 μl carboxylestaerase 1 (isoform c, human, recombinant (Sigma-Aldrich, Munich, Germany)) with activity 1000 units/mg protein (concentration: 5 mg/ml) was added. The mixture was incubated for 60 and 180 min at 37° C.

[2] = Hydrolytic stability at selected pH values (TLC); assay type: physicochemical
Description: Each 20 mg of lyophilized L-DOPA glycerol ester hydrochloride as well as L-DOPA ethyl ester hydrochloride were dissolved in 250 μl of buffer solution which was de-gassed for 5 min under argon.
The ester solutions were stored at 32° C.

[3] = cited from earlier work

solubility in water (Solubility in water): up to 400 mg/ml
Aqueous solubility (Solubility in water): 400 mg/mL
Time to complete hydrolysis (min) (with carboxylesterase) [1]: 60 min
Stability (days at pH 7.4, Soerensen buffer) [2]: 2 days
Structure (SMILES): CCOC(=O)[C@@H](N)Cc1ccc(O)c(O)c1.Cl [Ethyl-Dopa•HCl, L-DOPA ethyl ester hydrochloride]

Aqueous solubility (Solubility in water; hydrochloride): 2000 mg/mL
Aqueous solubility (Solubility in water; listed as L-DOPA glycerol ester hydrochloride, hydrochloride): ≥ 2000 mg/mL
Time to complete hydrolysis (min) (with carboxylesterase) [1]: >60 min
ester remaining ([1]; carboxylesterase 1, 37° C., after 180 min): only traces
hydrolytic stability ([2]; all pH values (1, 4.5, 7.4, 8.5), 32° C., over 14 days): stable
Stability (days at pH 7.4, Soerensen buffer) [2]: 14 days
Structure (SMILES): Cl.N[C@@H](Cc1ccc(O)c(O)c1)C(=O)OCC(O)CO (stereo partly drawn) [Gly-Dopa•HCl, L-DOPA glycerol ester hydrochloride]

Structure (SMILES): N[C@@H](Cc1ccc(O)c(O)c1)C(=O)O [L-DOPA, L-3,4-Dihydroxyphenylalanin]
water solubility ([3]; reported, Fernandez & Odin 2011): 20 mg/mL (≈ 101 mM)

solubility in water (Solubility in water): 400 mg/mL
ester cleavage ([1]; carboxylesterase 1, 37° C., after 60 min): complete
time within which the ester is cleaved ([2]; pH 7.4, 32° C.): ≤ 2 days
time within which the ester is cleaved ([2]; pH 8.5, 32° C.): ≤ 2 days
hydrolytic stability ([2]; pH=1, 32° C., over measured time period): stable
time within which the ester is cleaved ([2]; pH=4.5, 32° C.): ≤ 14 days
Structure (SMILES): CCOC(=O)[C@@H](N)Cc1ccc(O)c(O)c1 [L-DOPA ethyl ester]
solubility ([3]; at pH 8.2, free base, US 6,696,600 B2): 52 mg/mL (≈ 231 mM)
